In experiment [1] the test system is Helpless (H) mice. The following applies: genetic model of depression; cited from earlier work.
In experiment [2] the test system is central mGlu2 and mGlu3 receptors. The following applies: in vivo; cited from earlier work.
Experiment [3] concerns C57Bl6/J mice. The following applies: forced swim test; cited from earlier work.
Experiment [4] deals with cultured astrocytes. The following applies: cited from earlier work.
Experiment [5] concerns Aβ-induced neurodegeneration. The following applies: cited from earlier work.
Experiment [6] has as its system tumors injected into nude mice. As to conditions: compared with controls; cited from earlier work.
For experiment [7], the system named is glioma stem cells (GSC). The following applies: in vitro; cited from earlier work.
In experiment [8] the target is rat mGlu3 (Rattus norvegicus (Rat), UniProt P31422). In words: mGlu3 Ca2+ flux assay. The format is cell-based. The following applies: for IC50: read-out: rat mGlu3 IC50; for remaining activity at 30 µM: amplitude of response at 30 μM test compound as % of maximal response to glutamate, read-out: rat mGlu3 Glu max (%). An outline of the steps:
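This calcium mobilization assay used rat mGlu3 cells cultured overnight (37° C., 5% CO2) and read on the FDSS7000 after a 10 minute room-temperature incubation in 20 μL assay buffer. Each of 360 readings per well was divided by its initial value (F/F0). Potency came from fitting normalized responses against log concentration with an unconstrained 4 parameter logistic equation, weighting triplicate points equally.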
For orientation: Calcium assays in cells follow changes in intracellular calcium, usually with a dye or a luminescent sensor.

Experiment [9] concerns the target rat mGlu5 (Rattus norvegicus (Rat), UniProt P31424). In words: mGlu5 Ca2+ flux assay. It is filed as cell-based. As to conditions: for Fold selectivity (mGlu3 vs. mGlu5): ratio of rat mGlu5 EC50 or IC50 to rat mGlu3 IC50; for Emax at 30 µM: read-out: rat mGlu5 Glu max (%). The method, boiled down:
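Ca2+ flux read kinetically (FDSS7000) after overnight culture at 37° C/5% CO2 and a 5 min room-temperature buffer step following dye removal. Signals expressed per well as F/F0 and normalized to peak glutamate response; EC50 fitted by free 4-parameter logistic, three replicates per concentration equally weighted.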

Experiment [10] concerns mGlu4. In words: mGlu selectivity assay: effect of a single concentration on the glutamate concentration-response curve. The format is cell-based. As to conditions: tested at 10 μM. From the text:
(§1) Selectivity versus other mGlus can also be assessed by evaluating the effect of a single concentration of compound on the glutamate concentration-response curve (CRC) in cell lines expressing the mGlu of interest.

The subject of experiment [11] is mGlu7. The description is as above. It is filed as cell-based. As to conditions: tested at 10 μM.
Description: as §1

Experiment [12] concerns mGlu1. The description is as above. The format is cell-based. As to conditions: tested at 10 μM.
Description: as §1

Experiment [13] has as its system mGlu2. The experiment is described as above. The format is cell-based. As to conditions: tested at 10 μM.
Description: as §1

Experiment [14] deals with mGlu8. The experiment is described as above. As to conditions: tested at 10 μM. It is filed as cell-based.
Description: as §1

In experiment [15] the target is mGlu6 (Homo sapiens (Human), UniProt O15303). Described as above. It is filed as cell-based. As to conditions: tested at 10 μM.
Chain of mGlu6 (O15303 25-877): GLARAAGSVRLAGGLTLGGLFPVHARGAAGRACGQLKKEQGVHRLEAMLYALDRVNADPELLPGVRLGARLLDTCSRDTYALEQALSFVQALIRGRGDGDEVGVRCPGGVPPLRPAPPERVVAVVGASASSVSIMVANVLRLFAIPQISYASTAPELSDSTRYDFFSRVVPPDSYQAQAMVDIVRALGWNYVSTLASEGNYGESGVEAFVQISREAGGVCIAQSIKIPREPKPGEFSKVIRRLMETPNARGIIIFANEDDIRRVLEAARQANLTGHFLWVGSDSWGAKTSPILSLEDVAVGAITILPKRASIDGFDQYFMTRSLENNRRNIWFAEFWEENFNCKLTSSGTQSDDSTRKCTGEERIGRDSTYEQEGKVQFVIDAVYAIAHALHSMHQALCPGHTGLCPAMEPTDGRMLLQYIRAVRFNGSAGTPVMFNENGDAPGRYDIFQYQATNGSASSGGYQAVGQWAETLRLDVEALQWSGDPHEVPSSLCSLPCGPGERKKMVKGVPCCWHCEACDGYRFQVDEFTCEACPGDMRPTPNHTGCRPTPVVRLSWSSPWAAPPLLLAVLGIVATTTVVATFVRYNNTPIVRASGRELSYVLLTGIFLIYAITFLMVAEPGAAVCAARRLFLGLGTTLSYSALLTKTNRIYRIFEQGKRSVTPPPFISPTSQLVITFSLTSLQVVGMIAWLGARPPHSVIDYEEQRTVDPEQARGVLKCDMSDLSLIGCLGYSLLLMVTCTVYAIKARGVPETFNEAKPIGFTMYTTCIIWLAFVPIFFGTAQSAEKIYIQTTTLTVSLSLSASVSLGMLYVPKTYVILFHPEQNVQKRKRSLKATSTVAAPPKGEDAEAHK
Description: as §1

The test system of experiment [16] is schizophrenic patients. The following applies: compared to placebo, P<0.001 at week 4; cited from earlier work.
[17] abbreviates: NAM potency, decrease of glutamate EC80 response, >30,000 = no measurable activity, >10,000 = no plateau.
[18] abbreviates: read-out: rat mGlu5 EC50 or IC50.
[19] abbreviates: PAM, amplitude of response at 30 μM test compound as % of maximal response to glutamate.

SMILES strings stand for the structures. Like-named read-outs stand apart in the source and are kept apart here.

Chain of rat mGlu3 (P31422 23-879): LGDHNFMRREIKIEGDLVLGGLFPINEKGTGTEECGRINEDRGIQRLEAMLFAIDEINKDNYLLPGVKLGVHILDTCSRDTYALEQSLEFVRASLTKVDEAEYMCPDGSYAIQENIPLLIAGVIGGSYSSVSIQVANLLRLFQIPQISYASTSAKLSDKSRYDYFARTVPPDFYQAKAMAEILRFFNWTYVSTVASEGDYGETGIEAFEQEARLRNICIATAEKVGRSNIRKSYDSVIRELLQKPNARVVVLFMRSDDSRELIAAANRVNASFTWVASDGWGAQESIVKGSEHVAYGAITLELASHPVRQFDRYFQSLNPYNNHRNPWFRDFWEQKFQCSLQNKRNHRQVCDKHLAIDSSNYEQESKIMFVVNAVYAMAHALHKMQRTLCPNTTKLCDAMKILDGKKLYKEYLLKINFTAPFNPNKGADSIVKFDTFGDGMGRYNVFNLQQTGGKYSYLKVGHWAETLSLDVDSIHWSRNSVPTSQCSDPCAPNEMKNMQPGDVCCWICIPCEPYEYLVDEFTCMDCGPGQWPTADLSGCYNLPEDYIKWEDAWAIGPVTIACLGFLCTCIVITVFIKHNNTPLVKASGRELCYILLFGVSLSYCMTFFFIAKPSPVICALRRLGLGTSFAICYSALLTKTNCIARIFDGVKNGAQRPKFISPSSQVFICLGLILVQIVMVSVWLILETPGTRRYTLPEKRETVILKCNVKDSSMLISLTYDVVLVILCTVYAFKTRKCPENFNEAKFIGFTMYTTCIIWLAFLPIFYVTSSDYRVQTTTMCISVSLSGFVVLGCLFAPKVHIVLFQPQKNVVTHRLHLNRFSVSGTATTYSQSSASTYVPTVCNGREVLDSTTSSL
Chain of rat mGlu5 (P31424 21-1203): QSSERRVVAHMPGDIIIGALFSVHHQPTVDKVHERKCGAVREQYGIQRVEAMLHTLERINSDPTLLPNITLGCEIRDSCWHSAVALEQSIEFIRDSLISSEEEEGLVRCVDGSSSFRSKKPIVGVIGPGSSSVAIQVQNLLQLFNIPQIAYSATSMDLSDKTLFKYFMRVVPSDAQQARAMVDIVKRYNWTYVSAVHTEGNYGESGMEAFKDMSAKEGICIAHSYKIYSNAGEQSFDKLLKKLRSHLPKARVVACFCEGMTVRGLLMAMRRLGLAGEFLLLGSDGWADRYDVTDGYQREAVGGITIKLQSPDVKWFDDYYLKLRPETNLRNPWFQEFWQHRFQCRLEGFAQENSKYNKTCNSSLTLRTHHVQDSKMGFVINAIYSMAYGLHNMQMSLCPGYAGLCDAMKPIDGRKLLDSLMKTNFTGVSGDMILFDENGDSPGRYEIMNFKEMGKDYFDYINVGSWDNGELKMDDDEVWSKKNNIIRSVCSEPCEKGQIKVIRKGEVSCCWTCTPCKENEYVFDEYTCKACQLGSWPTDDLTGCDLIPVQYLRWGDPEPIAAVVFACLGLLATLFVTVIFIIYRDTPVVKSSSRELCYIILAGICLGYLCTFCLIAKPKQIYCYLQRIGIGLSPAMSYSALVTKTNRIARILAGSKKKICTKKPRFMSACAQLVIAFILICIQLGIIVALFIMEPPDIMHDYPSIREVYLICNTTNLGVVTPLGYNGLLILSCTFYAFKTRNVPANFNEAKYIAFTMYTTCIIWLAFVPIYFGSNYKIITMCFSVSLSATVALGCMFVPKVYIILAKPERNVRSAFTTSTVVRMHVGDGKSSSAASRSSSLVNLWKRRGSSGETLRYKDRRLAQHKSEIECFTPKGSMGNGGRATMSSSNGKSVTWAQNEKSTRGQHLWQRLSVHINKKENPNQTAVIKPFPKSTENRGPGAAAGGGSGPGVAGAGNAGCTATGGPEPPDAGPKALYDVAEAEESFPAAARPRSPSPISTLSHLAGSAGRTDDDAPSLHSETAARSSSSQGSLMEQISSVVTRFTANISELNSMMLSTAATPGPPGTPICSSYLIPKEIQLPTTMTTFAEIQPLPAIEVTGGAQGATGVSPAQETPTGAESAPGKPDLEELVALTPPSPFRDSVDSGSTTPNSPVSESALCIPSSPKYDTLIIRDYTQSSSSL

For the molecule `Cc1cc(-c2cccc(C3=Nc4cc(C)c(C(F)(F)F)cc4NC(=O)C3)c2)cc(C)n1` [RO4491533], the “activity in the tail suspension test” value in experiment [1] is “active”. For the same molecule, the “reversal of hypolocomotor effect of LY379268” value in [2] is listed as “reversed the hypolocomotor effect”. For the same molecule, the immobility time entry in [3] is listed as “dose-dependently reduced immobility time”.

In the case of `N[C@@]1(C(=O)O)CO[C@H]2[C@H](C(=O)O)[C@H]21` [LY379268], the sAPPα release entry in [4] is on record as “incremented sAPPα release”. Further, the “effect on Aβ-induced neurodegeneration” value in experiment [5] was “neuroprotective activity”.

On to `N[C@](CC1c2ccccc2Oc2ccccc21)(C(=O)O)[C@H]1C[C@@H]1C(=O)O` [LY341495], for which, in experiment [1], the “activity in the tail suspension test” value is recorded as “active”. Also, in experiment [6], the “growth rate of tumors” value is listed as “reduced” and the volume of tumors entry is on record as “reduced”. Further, the “reversal of hypolocomotor effect of LY379268” value in experiment [2] was “achieved the same result”. In addition, in experiment [7], the proliferation rates result is listed as “decreased in a time-dependent manner” and the “proportion of cells in S phase” value is reported as “decreased in a time-dependent manner”. For the same molecule, in experiment [3], the immobility time entry was “dose-dependently reduced immobility time”. In [5], the “effect on Aβ-induced neurodegeneration” value is “prevented”.

In the case of `CCS(=O)(=O)N(Cc1cccnc1)c1cccc(-c2ccc(C#N)cc2)c1` [LY566332], the “effect on Aβ-induced neurodegeneration” value in experiment [5] is “amplified Aβ-induced neurodegeneration”.

The IC50 is the concentration at which inhibition is half-maximal. By EC50 is commonly meant the concentration that produces a half-maximal response. `COc1ccc(N(C)Cc2cc3n(n2)CCN(c2ccc(F)cc2)C3=O)cc1` [Compound 92, 5-(4-fluorophenyl)-2-(((4-methoxyphenyl)(methyl)amino)methyl)-6,7-dihydropyrazolo[1,5-a]pyrazin-4(5H)-one]: the IC50 in experiment [8] (setting [17]) came out at 986 nM. For the same molecule, the remaining activity at 30 µM in experiment [8] turned out to be 1.39%. Further, the “Fold selectivity (mGlu3 vs. mGlu5)” value in experiment [9] is reported as >30. Moreover, the concentration giving a half-maximal response (EC50) in [9] (setting [18]) is > 30000 nM. The “activity against mGlu4” value in experiment [10] was “inactive”. The “activity against mGlu7” value in experiment [11] is “inactive”. In experiment [12], the “activity against mGlu1” value was “inactive”. Further, the “activity against mGlu2” value in experiment [13] was “inactive”. Besides, the “activity against mGlu8” value in experiment [14] was “inactive”. Moreover, the “activity against mGlu6” value in experiment [15] is “inactive”.

For the molecule `N#CCc1ccc(NCc2cc3n(n2)CCN(c2ccc(F)cc2)C3=O)cc1` [Compound 26, 2-(4-(((5-(4-fluorophenyl)-4-oxo-4,5,6,7-tetrahydropyrazolo[1,5-a]pyrazin-2-yl)methyl)amino)phenyl)acetonitrile], in experiment [8], the remaining activity at 30 µM came out at 1.01% and the IC50 was found to be 890 nM. Besides, the “Fold selectivity (mGlu3 vs. mGlu5)” value in experiment [9] is >33. Moreover, in experiment [9] (setting [18]), the EC50 was > 30000 nM. Also, the “activity against mGlu4” value in experiment [10] is “inactive”. In experiment [11], the “activity against mGlu7” value is “inactive”. Moreover, the “activity against mGlu1” value in [12] is “inactive”. Further, in experiment [13], the “activity against mGlu2” value was “inactive”. Further, the “activity against mGlu8” value in experiment [14] was “inactive”. In experiment [15], the “activity against mGlu6” value was “inactive”.

Turning to `C[C@@H]1CN(c2ccc(F)cc2)C(=O)c2cc(CNc3cccc(OC(F)F)c3)nn21` [Compound 54, (R)-2-(((3-(difluoromethoxy)phenyl)amino)methyl)-5-(4-fluorophenyl)-7-methyl-6,7-dihydropyrazolo[1,5-a]pyrazin-4(5H)-one], the IC50 is 2040 nM in experiment [8] (setting [17]) and > 10000 nM in experiment [9] (compound noted as NAM or partial antagonist (PAnt) at mGlu5, glutamate EC80, read-out: rat mGlu5 EC50 or IC50). Also, the remaining activity at 30 µM in experiment [8] worked out at 3.56%. The Emax at 30 µM in experiment [9] (compound noted as NAM or partial antagonist (PAnt) at mGlu5, response at 30 μM as % of maximal glutamate response) was found to be 36%. For the same molecule, the “Fold selectivity (mGlu3 vs. mGlu5)” value in [9] was >4.9.

Turning to `COc1ccc(N(C)Cc2cc3n(n2)CCN(c2ccc(C)cc2F)C3=O)cc1` [Compound 108, 5-(2-fluoro-4-methylphenyl)-2-(((4-methoxyphenyl)(methyl)amino)methyl)-6,7-dihydropyrazolo[1,5-a]pyrazin-4(5H)-one], in experiment [8] (setting [17]), the IC50 turned out to be 1250 nM. In addition, the remaining activity at 30 µM in experiment [8] was 0.97%. Moreover, in experiment [9], the “Fold selectivity (mGlu3 vs. mGlu5)” value is reported as >24. In addition, the EC50 in experiment [9] (setting [18]) was > 30000 nM.

For `C[C@H]1CN(c2ccc(F)cc2)C(=O)c2cc(CNc3ccc(Cl)cc3)nn21` [Compound 61, (S)-2-(((4-chlorophenyl)amino)methyl)-5-(4-fluorophenyl)-7-methyl-6,7-dihydropyrazolo[1,5-a]pyrazin-4(5H)-one], the IC50 in experiment [8] (setting [17]) stood at 1310 nM. Also, in experiment [8], the remaining activity at 30 µM was 2.22%. Besides, the Emax at 30 µM in experiment [9] (setting [19]) was 80.3%. In addition, the “Fold selectivity (mGlu3 vs. mGlu5)” value in experiment [9] is 4.69. In addition, the EC50 in [9] (setting [18]) is 6150 nM.

With `COc1ccc(NCc2cc3n(n2)[C@H](C)CN(c2ccc(F)cc2)C3=O)cc1` [Compound 62, (R)-5-(4-fluorophenyl)-2-(((4-methoxyphenyl)amino)methyl)-7-methyl-6,7-dihydropyrazolo[1,5-a]pyrazin-4(5H)-one], the IC50 in experiment [8] (setting [17]) was found to be 2990 nM. Moreover, the remaining activity at 30 µM in experiment [8] was found to be 0.79%. Further, the “Fold selectivity (mGlu3 vs. mGlu5)” value in [9] is given as >10. Moreover, the EC50 in experiment [9] (setting [18]) was > 30000 nM.

On to `O=C1c2cc(CNc3cccc(OC(F)F)c3)nn2CCN1c1ccc(F)cc1` [Compound 12, 2-(((3-(difluoromethoxy)phenyl)amino)methyl)-5-(4-fluorophenyl)-6,7-dihydropyrazolo[1,5-a]pyrazin-4(5H)-one], for which the IC50 in experiment [8] (setting [17]) is 505 nM. The remaining activity at 30 µM in [8] came out at 1.31%. The Emax at 30 µM in experiment [9] (setting [19]) was determined as 85.6%. In [9], the “Fold selectivity (mGlu3 vs. mGlu5)” value came out at 14.51. Also, the EC50 in [9] (setting [18]) was 7330 nM.

For `C[C@@H]1CN(c2ccc(F)cc2)C(=O)c2cc(CNc3ccc(F)cc3)nn21` [Compound 56, (R)-5-(4-fluorophenyl)-2-(((4-fluorophenyl)amino)methyl)-7-methyl-6,7-dihydropyrazolo[1,5-a]pyrazin-4(5H)-one], in experiment [8] (setting [17]), the IC50 came out at 1160 nM. For the same molecule, the remaining activity at 30 µM in [8] was 2.97%. In experiment [9], the “Fold selectivity (mGlu3 vs. mGlu5)” value is reported as >25. Further, in experiment [9] (setting [18]), the 50% effective concentration (EC50) is > 30000 nM.

Turning to `Cc1ccccc1NCc1cc2n(n1)[C@H](C)CN(c1ccc(F)cc1)C2=O` [Compound 44, (R)-5-(4-fluorophenyl)-7-methyl-2-((o-tolylamino)methyl)-6,7-dihydropyrazolo[1,5-a]pyrazin-4(5H)-one], the IC50 in experiment [8] (setting [17]) was 2670 nM. Also, the remaining activity at 30 µM in experiment [8] was -0.26%. Besides, the Emax at 30 µM in experiment [9] (setting [19]) was 23.9%. For the same molecule, in [9], the “Fold selectivity (mGlu3 vs. mGlu5)” value was >3.7. Besides, the EC50 in experiment [9] (setting [18]) is > 10000 nM.

For `N[C@@]1(C(=O)O)CS(=O)(=O)[C@H]2[C@H](C(=O)O)[C@H]21` [LY404039], in [16], the “positive and negative symptoms of schizophrenia” value was “statistically significant improvements in both positive and negative symptoms”.

For `C[C@H]1CN(c2ccc(F)cc2)C(=O)c2cc(CNc3c(F)cccc3F)nn21` [Compound 73, (S)-2-(((2,6-difluorophenyl)amino)methyl)-5-(4-fluorophenyl)-7-methyl-6,7-dihydropyrazolo[1,5-a]pyrazin-4(5H)-one], in experiment [8], the remaining activity at 30 µM was determined as 4.07%. Besides, in experiment [9] (setting [19]), the Emax at 30 µM amounted to 63.9%.

Take `CN(Cc1cc2n(n1)CCN(c1ccc(F)cc1)C2=O)c1ccccc1` [Compound 82, 5-(4-fluorophenyl)-2-((methyl(phenyl)amino)methyl)-6,7-dihydropyrazolo[1,5-a]pyrazin-4(5H)-one]: in experiment [8] (setting [17]), the IC50 was 1220 nM. In addition, the remaining activity at 30 µM in experiment [8] worked out at 1.01%. Moreover, the “Fold selectivity (mGlu3 vs. mGlu5)” value in [9] was >24. The EC50 in experiment [9] (setting [18]) is > 30000 nM.

`COc1ccc(N(C)Cc2cc3n(n2)CCN(c2ccc(Cl)cc2)C3=O)cc1` [Compound 96, 5-(4-chlorophenyl)-2-(((4-methoxyphenyl)(methyl)amino)methyl)-6,7-dihydropyrazolo[1,5-a]pyrazin-4(5H)-one]: in experiment [8] (setting [17]), the IC50 came out at 585 nM. In experiment [8], the remaining activity at 30 µM was found to be 1.61%. In addition, the “Fold selectivity (mGlu3 vs. mGlu5)” value in experiment [9] is >51. Besides, in experiment [9] (setting [18]), the EC50 is > 30000 nM.

The record behind these values is patent US9676782B2, “Substituted pyrazolo[1,5-a]pyrazines as negative allosteric modulators of metabotropic glutamate receptor 3” (Vanderbilt University, priority 2014, dated 2017).
